Square brackets hold non-standard residues; d marks the D form. Peptide text beside a SMILES is read from it. * marks the point of attachment. Dolaproine = CO[C@@H]([C@@H]1CCCN1)[C@@H](C)C(=O)O; Dil = CC[C@H](C)[C@H](NC)[C@@H](CC(=O)O)OC; X1 = C[C@@H](N*)[C@@H](O)c1ccccc1; NMeV = CN[C@H](C(=O)O)C(C)C
Legend:
[1] = tested on: MES-SA/MX2 cells (P-glycoprotein); assay: Free drug cell killing on PgP overexpressing MES-SA/MX2 cells with or without PgP inhibitor GF120918; format: cell-based
Source text: (§1) To evaluate if free drug (I) is specifically a substrate of P-glycoprotein (PgP), which is responsible for cisplatin-resistance in some of the ovarian cancer cell lines (Stordal et al. 2012. PLoS One 7(7)), the free drug cell killing activities were investigated on PgP overexpressing MES-SA/MX2 cell line and the parental MES-SA cells. The cell killing activity of free drug (I), free drug (II) and a control free drug (MMAE, designated “III”) on the PgP-overexpressing MES-SA/MX2 cells were reduced by different levels compared to their activity on parental MES-SA cells. The MES-SA/MX2 cells were also treated with PgP inhibitor GF120918 (5 μM) to further investigate if the observed cell killing reduction is contributed by the presence of PgP on the cell surface.

[2] = tested on: cell lines tested (Igrov1, A549 and others); assay: In vitro cytotoxic activity of free drugs, various cell lines; format: cell-based; details: in vitro cytotoxicity studies
[3] = Body weight change in rats given free drugs; format: in vivo, rat; details: free drug (I): two doses (0.4, 1 mg/kg); free drug (II): 0.4 mg/kg
[4] = Pharmacokinetic profile of free drugs in Sprague-Dawley rats; format: in vivo, rat
Protocol: To assess the pharmacokinetic profile of free drug (I), female Sprague-Dawley rats (mean body weight 250 g) were given either a 0.4 mg/kg or 1 mg/kg dose by IV bolus administration (N═three animal per dose level) via an indwelling jugular vein catheter. Blood samples were collected at […], 1, 2, 8, 24, 32, 48, and 72 hour post-dose. Levels of free drug (I) and (II) were measured by LC-MS/MS and non-compartmental pharmacokinetic analysis was conducted using Phoenix WinNonlin Version 6.4 (Pharsight Corporation). The PK of free drug (I) could not be estimated due to the fact that concentrations of (I) increased from 2 to 8 hours and were undetectable thereafter.

[5] = tested on: MES-SA cells; assay: Free drug cell killing on parental MES-SA cells; format: cell-based; details: Homo sapiens, MEA-SA, No GF120918
Source text: as §1

[6] = tested on: MC38-hFolRα tumors; assay: MC38-hFolRα tumor model, combination with Avelumab; format: in vivo; details: ADC Molecule 4 10 or 15 mg/kg once IV; Avelumab q3dx3
Source text: Results are illustrated in FIGS. 24 and 25.

[7] = tested on: FOLR1-positive Igrov1 cells; assay: Secondary antibody cell killing assay (anti-human Fc nanobody-hemiasterlin) on Igrov1 cells; format: cell-based; details: humanized 6D1 (2060) antibodies
Protocol: The internalization of the antibodies was evaluated by a secondary antibody cell killing assay on target positive cells. FOLR1-positive KB cells were obtained from ATCC, and FOLR1-positive Igrov1 cells were obtained from NIH. The cells were maintained in Ham's F-12: high glucose DMEM (50:50) (Corning, Cellgro-Mediatech) supplemented with 10% heat-inactivated fetal bovine serum (Corning, Cellgro-Mediatech, Manassas, Virginia), 1% Penicillin/Streptomycin (Corning, Cellgro-Mediatech, Manassas, Virginia) and 2 mmol/L-glutamax (Thermo Fisher Scientific, Waltham, Massachusetts). Adherent cells were washed twice with calcium and magnesium-free Hanks Balanced Salt Solution (HBSS), harvested with HYQ® TASE™ (Hyclone; Thermo Fisher Scientific, Waltham, Massachusetts) and counted by the Vi-CELL Cell Viability Analyzers (Beckman Coulter, Indianapolis, Indiana). A total of 625 cells were seeded in each well of a 384-well flat bottom white polystyrene plate. Lead antibodies were formulated at 4-fold starting concentration in the cell culture medium and filtered through Multi ScreenHTS 96-Well Filter Plates (Millipore; Billerica, Massachusetts). […] Assay plates were cultured at 37° C. in a CO2 incubator for 120 hrs before assay. For cell viability measurement, 30 μL of Cell Titer-Glog reagent (Promega Corp. Madison, WI) was added into each well, and plates were processed as per product instructions. Relative luminescence was measured on an ENVISION® plate reader (Perkin-Elmer; Waltham, MA). Relative luminescence readings were converted to percent viability using untreated cells as controls. Data was fitted with nonlinear regression analysis, using a log(inhibitor) vs. response-variable slope, 4 parameter fit with GraphPad Prism (GraphPad v 5.0, Software; San Diego, California). Data was expressed as relative cell viability (ATP content) % vs. dose of antibody.

[8] = biological target: T1, human FOLR1-H1S (Homo sapiens, UniProt P15328); assay: Biacore affinity and kinetic binding analysis; details: humanized 6D1 (2060) antibodies
T1 construct: His (printed 'H1S', read as a misprint of HIS)
T1 sequence (P15328 25-234 limits assumed): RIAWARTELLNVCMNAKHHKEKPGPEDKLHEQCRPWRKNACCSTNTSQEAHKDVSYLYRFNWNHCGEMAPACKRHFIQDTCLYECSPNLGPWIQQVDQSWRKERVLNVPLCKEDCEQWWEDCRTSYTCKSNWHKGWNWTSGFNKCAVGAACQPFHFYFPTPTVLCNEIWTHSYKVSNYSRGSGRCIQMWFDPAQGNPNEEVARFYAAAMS
Protocol: Anti-Fc polyclonal antibodies were immobilized onto a CM5 chip (GE Life Sciences) using amine coupling chemistry (from Amine Coupling Kit, GE Life Sciences). The immobilization steps were carried out at a flow rate of 25 μL/min in 1×HBS-EP+buffer (GE Life Sciences; 10× Stock diluted before use). The sensor surfaces were activated for 7 min with a mixture of N-hydroxysuccinimide (NHS, 0.05 M) and 1-ethyl-3-(3-dimethylaminopropyl)-carbodiimide (EDC, 0.2 M). The anti-Fc polyclonal antibodies were injected over all 4 flow cells at a concentration of 25 μg/mL in 10 mM sodium acetate, pH 4.5, for 7 min. Ethanolamine (1 M, pH 8.5) was injected for 7 min to block any remaining activated groups. An average of 12,000 response units (RU) of capture antibody was immobilized on each flow cell.
Off-rate and kinetic binding experiments were performed at 25° C. using 1×HBS-EP+ buffer. Test and control antibodies were injected over the anti-Fc surface at concentrations of 5-10 μg/mL for 12 seconds at a flow rate of 10 μL/min on flow cells 2, 3 and 4, followed by a buffer wash for 30 seconds at the same flow rate. Kinetic characterization of antibody samples was carried out with a single concentration of antigen (for off-rate ranking) or a 1:2 dilution series of antigen (for kinetic characterization) and 1 injection of 0 nM antigen. […] Between each ligand capture and analyte binding cycle, regeneration was carried out using 2 injections of 10 mM glycine pH 2.0 for 30 seconds at 30 μL/min, followed by a 30 second buffer wash step.
The data were fit with the Biacore T200 Evaluation software, using a 1:1 Langmuir binding model. KD (affinity, nM) was determined as a ratio of the kinetic rate constants calculated from the fits of the association and dissociation phases.

[9] = MEA-SA/MX2, GF120918 (5 μM PgP inhibitor)

CN[C@H](C(=O)N[C@H](C(=O)N(C)[C@H](/C=C(\C)C(=O)O)C(C)C)C(C)(C)C)C(C)(C)c1cccc(N)c1 [free drug (I)]
EC50 [1, 9]: 6.4 nM
EC50 ([1]; MEA-SA/MX2, No GF120918): 50 nM
Span ([1]; MEA-SA/MX2, No GF120918): 100%
cytotoxic activity of released free drugs, comparison [2]: comparable cytotoxic activity
effect on body weight [3]: did not have an effect on the body weight
plasma level post dose ([4]; 0.4 or 1 mg/kg IV bolus): undetectable at 24 hours post dose
PK of free drug (I) in rat vs. free drug (II) ([4]; rat): Free drug (I) has faster clearance

COc1cc2cc(c1Cl)N(C)C(=O)C[C@H](OC(=O)[C@H](C)N(C)C(=O)CCC(C)(C)S)[C@]1(C)O[C@H]1[C@H](C)[C@@H]1C[C@@](O)(NC(=O)O1)[C@H](OC)/C=C/C=C(/C)C2 [free drug (II)]
EC50 [1, 9]: 1.7 nM
EC50 ([1]; MEA-SA/MX2, No GF120918): 28 nM
Span ([1]; MEA-SA/MX2, No GF120918): 100%
cytotoxic activity of released free drugs, comparison [2]: comparable cytotoxic activity
effect on body weight [3]: progressive body weight loss

CC[C@H](C)[C@@H]([C@@H](CC(=O)N1CCC[C@H]1[C@H](OC)[C@@H](C)C(=O)N[C@H](C)[C@@H](O)c1ccccc1)OC)N(C)C(=O)[C@@H](NC(=O)[C@@H](NC)C(C)C)C(C)C [free drug (III), monomethyl auristatin E] (H-[NMeV]V[Dil][Dolaproine]-X1; N-terminus and C-terminus assumed)
EC50 [1, 9]: 1 nM
EC50 ([1]; MEA-SA/MX2, No GF120918): 111 nM
EC50 [5]: 0.75 nM

Avelumab: PD-L1 inhibitor Avelumab (clinical grade) [reference compound]
initial tumor response [6]: tumor stasis until approximately day 7

B1: SRP2060-A06 (antibody, V domains shown)
VH: EVQLLESGGGLVQPGGSLRLSCAFSGFSLSTFGMGVGWVRQAPGKGLEWVGHIWWDDDKYYYPALKGRFTISKDNSKNTVYLQMNSLRAEDTAVYYCGRNHFPHYYGSSHWYFDVWGQGTTVTVSS
VL: DIQMTQSPSTLSASVGDRVTITCKASQDINSYLSWYQQKPGKAPKLLIYRANRLVDGVPSRFSGSGSGTEFTLTISSLQPDDFATYYCLQYDEFPYTFGGGTKVEIK
modifications: drug conjugate; Synthetic SRP2060-A06, VH; Synthetic H6D1-LC5, VL
Igrov 2° Antibody Cell Killing, Nb-SC239 span [7]: 66%

B2: SRP2060-E10: affinity-matured humanized 6D1 antibody, VH SEQ ID NO 363, VL H6D1-LC4 (antibody, V domains shown)
VH: EVQLLESGGGLVQPGGSLRLSCAFSGFSLSTFGMGVGWVRQAPGKGLEWVSHIWWDDDKYYHPALKGRFTISKDNSKNTVYLQMNSLRAEDTAVYYCGRNHFPHYYGSSHWYFNVWGQGTTVTVSS
VL: EIVMTQSPATLSLSPGERATLSCKASQDINSYLSWYQQKPGQAPRLLIYRANRLVDGIPARFSGSGSGTDYTLTISSLEPEDFAVYYCLQYDEFPYTFGGGTKVEIK
modifications: drug conjugate; Synthetic SRP2060-E10, VH; Synthetic H6D1-LC4, VL
Biacore kinetics ka [8]: 582000 M⁻¹ s⁻¹
Biacore kinetics kd [8]: 0.0012 s⁻¹
Igrov 2° Antibody Cell Killing, Nb-SC239 span [7]: 68%

B3: SRP2060-B01 (antibody, V domains shown)
VH: EVQLLESGGGLVQPGGSLRLSCALSGFSLSTFGMGVGWVRQATGKGLEWVSHIWWDDDKYYHPALKGRFTISKDNSKNTVHLQMNSLRAEDTAVYYCGRNHFPHYYGSSHWYFNVWGQGTTVTVSS
VL: DIQMTQSPSTLSASVGDRVTITCKASQDINSYLSWYQQKPGKAPKLLIYRANRLVDGVPSRFSGSGSGTEFTLTISSLQPDDFATYYCLQYDEFPYTFGGGTKVEIK
modifications: drug conjugate; Synthetic SRP2060-B01, VH; Synthetic H6D1-LC5, VL
Igrov 2° Antibody Cell Killing, Nb-SC239 span [7]: 76%

B4: SRP2060-E05: affinity-matured humanized 6D1 antibody, VH SEQ ID NO 364, VL H6D1-LC4 (antibody, V domains shown)
VH: EVQLLESGGGLVQPGGSLRLSCAFSGFSLSTFGMGVGWVRQAPGKGLEWVSHIWWDDDKYYHPALKGRFTVSKDNSKNTVYLQMNSLRAEDTAVYYCGRNHFPHYYGSSHWYFNVWGQGTTVTVSS
VL: EIVMTQSPATLSLSPGERATLSCKASQDINSYLSWYQQKPGQAPRLLIYRANRLVDGIPARFSGSGSGTDYTLTISSLEPEDFAVYYCLQYDEFPYTFGGGTKVEIK
modifications: drug conjugate; Synthetic SRP2060-E05, VH; Synthetic H6D1-LC4, VL
Biacore kinetics ka [8]: 541000 M⁻¹ s⁻¹
Biacore kinetics kd [8]: 0.00158 s⁻¹
Igrov 2° Antibody Cell Killing, Nb-SC239 span [7]: 71%
